Our source for the EC50 and Emax values is patent US8802700B2 (Vertex Pharmaceuticals Incorporated, priority 2010, dated 2014).

For the experiment, the target named is T1, ΔF508-CFTR (Homo sapiens, UniProt P13569, DEL508-508).
T1 construct: expressed in transfected cells
The experiment can be described thus: Membrane potential optical assay (FRET voltage-sensor dyes, VIPR), identification of potentiator compounds. Format: cell-based. Particulars: Table 3, assay not given; for Emax: read-out: % Activity (% Efficacy, relative efficacy). An excerpt:
The optical membrane potential assay utilized voltage-sensitive FRET sensors described by Gonzalez and Tsien (See Gonzalez, J. E. and R. Y. Tsien (1995) “Voltage sensing by fluorescence resonance energy transfer in single cells” Biophys J 69(4): 1272-80, and Gonzalez, J. E. and R. Y. Tsien (1997) “Improved indicators of cell membrane potential that use fluorescence resonance energy transfer” Chem Biol 4(4): 269-77) in combination with instrumentation for measuring fluorescence changes such as the Voltage/Ion Probe Reader (VIPR) (See […]. Oades, et al. (1999) “Cell-based assays and instrumentation for screening ion-channel targets” Drug Discov Today 4(9): 431-439). These voltage sensitive assays are based on the change in fluorescence resonant energy transfer (FRET) between the membrane-soluble, voltage-sensitive dye, DiSBAC2(3), and a fluorescent phospholipid, CC2-DMPE, which is attached to the outer leaflet of the plasma membrane and acts as a FRET donor. Changes in membrane potential (Vm) cause the negatively charged DiSBAC2(3) to redistribute across the plasma membrane and the amount of energy transfer from CC2-DMPE changes accordingly. The changes in fluorescence emission were monitored using VIPRTM II, which is an integrated liquid handler and fluorescent detector designed to conduct cell-based screens in 96- or 384-well microtiter plates. To identify potentiators of ΔF508-CFTR, a double-addition HTS assay format was developed. During the first addition, a Cl^--free medium with or without test compound was added to each well. […] (in mM) NaCl 160, KCl 4.5, CaCl2 2, MgCl2 1, HEPES 10, pH 7.4 with NaOH. • Chloride-free bath solution: Chloride salts in Bath Solution #1 are substituted with gluconate salts. • CC2-DMPE: Prepared as a 10 mM stock solution in DMSO and stored at -20° C. • DiSBAC2(3): Prepared as a 10 mM stock in DMSO and stored at -20° C. NIH3T3 mouse fibroblasts stably expressing ΔF508-CFTR are used for optical measurements of membrane potential. […] For all optical assays, the cells were seeded at 30,000/well in 384-well matrigel-coated plates and cultured for 2 hrs at 37° C. before culturing at 27° C. for 24 hrs. for the potentiator assay.

T1 sequence (P13569 with tags, fused parts or gaps DEL508-508): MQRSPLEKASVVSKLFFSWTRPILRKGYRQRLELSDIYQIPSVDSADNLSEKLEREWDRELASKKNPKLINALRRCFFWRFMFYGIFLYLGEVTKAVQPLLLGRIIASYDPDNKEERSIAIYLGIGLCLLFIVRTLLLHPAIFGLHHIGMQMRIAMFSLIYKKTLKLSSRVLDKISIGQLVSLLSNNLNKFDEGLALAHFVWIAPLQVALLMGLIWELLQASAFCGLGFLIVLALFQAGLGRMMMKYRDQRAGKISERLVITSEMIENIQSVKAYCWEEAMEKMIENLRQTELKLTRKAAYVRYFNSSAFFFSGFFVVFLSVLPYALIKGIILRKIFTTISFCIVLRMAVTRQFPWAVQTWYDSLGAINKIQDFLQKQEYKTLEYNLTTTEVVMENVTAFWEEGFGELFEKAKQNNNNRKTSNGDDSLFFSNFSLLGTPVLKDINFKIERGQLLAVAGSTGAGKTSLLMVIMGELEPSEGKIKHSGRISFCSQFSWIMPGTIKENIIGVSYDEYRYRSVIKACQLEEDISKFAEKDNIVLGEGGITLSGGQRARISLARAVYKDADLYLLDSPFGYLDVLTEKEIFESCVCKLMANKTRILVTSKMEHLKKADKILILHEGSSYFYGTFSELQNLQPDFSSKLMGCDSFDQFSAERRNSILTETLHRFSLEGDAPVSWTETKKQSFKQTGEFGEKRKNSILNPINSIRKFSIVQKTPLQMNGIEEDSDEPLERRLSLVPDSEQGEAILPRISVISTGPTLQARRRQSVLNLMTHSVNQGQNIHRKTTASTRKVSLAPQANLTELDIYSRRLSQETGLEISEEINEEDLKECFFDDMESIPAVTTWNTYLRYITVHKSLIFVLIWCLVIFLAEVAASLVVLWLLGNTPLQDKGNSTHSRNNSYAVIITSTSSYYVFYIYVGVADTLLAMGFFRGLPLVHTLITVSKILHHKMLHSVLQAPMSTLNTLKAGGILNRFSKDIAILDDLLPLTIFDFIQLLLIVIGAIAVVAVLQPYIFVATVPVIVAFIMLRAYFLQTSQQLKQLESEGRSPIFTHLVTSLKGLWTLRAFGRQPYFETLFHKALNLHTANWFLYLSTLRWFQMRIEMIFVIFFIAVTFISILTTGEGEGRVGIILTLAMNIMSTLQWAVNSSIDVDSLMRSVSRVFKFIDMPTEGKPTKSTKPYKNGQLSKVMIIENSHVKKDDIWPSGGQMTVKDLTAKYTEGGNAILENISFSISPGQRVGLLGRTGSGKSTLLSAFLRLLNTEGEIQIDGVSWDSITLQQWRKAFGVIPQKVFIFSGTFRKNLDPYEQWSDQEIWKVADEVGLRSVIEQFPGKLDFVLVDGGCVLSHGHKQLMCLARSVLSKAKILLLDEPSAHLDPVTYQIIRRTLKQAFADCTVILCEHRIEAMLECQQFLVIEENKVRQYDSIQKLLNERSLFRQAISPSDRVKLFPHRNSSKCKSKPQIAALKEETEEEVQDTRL

In the case of `O=C(Nc1ccccc1-c1ccncc1)c1c[nH]c2ccccc2c1=O` [Compound 70, 4-oxo-N-[2-(4-pyridyl)phenyl]-1H-quinoline-3-carboxamide], the EC50 was 10 to 25 µM and the Emax lay within 25 to 100%.

As for `CC(C)OC(=O)c1cccc(-c2ccccc2NC(=O)c2c[nH]c3ccccc3c2=O)c1` [Compound 71, 3-[2-[(4-oxo-1H-quinolin-3-yl)carbonylamino]phenyl]benzoic acid isopropyl ester], the Emax lay in the range of 25 to 100%.

Turning to `CCc1ccccc1NC(=O)c1c[nH]c2ccccc2c1=O` [Compound 72, N-(2-ethylphenyl)-4-oxo-1H-quinoline-3-carboxamide], the Emax lay in the range of 25 to 100%.

Turning to `O=C(Nc1ccc2nc(-c3ccccc3)[nH]c2c1)c1c[nH]c2ccccc2c1=O` [Compound 73, 4-oxo-N-(2-phenyl-3H-benzoimidazol-5-yl)-1H-quinoline-3-carboxamide], the Emax was less than 25%.

With `O=C(Nc1ccc(C(F)(F)F)cn1)c1c[nH]c2ccccc2c1=O` [Compound 74, 4-oxo-N-[5-(trifluoromethyl)-2-pyridyl]-1H-quinoline-3-carboxamide], the Emax was less than 25%.

Regarding `O=C(Nc1cnc2ccccc2c1)c1c[nH]c2ccccc2c1=O` [Compound 75, 4-oxo-N-(3-quinolyl)-1H-quinoline-3-carboxamide], the Emax was less than 25%.

Regarding `O=C(Nc1ccccc1-c1ccc(F)c(F)c1)c1c[nH]c2ccccc2c1=O` [Compound 76, N-[2-(3,4-difluorophenyl)phenyl]-4-oxo-1H-quinoline-3-carboxamide], the Emax is 25 to 100%.

For `O=C(Nc1cc2[nH]ccc2cc1F)c1c[nH]c2ccccc2c1=O` [Compound 77, N-(5-fluoro-1H-indol-6-yl)-4-oxo-1H-quinoline-3-carboxamide], the Emax fell in the range of 25 to 100%.

In the case of `NS(=O)(=O)c1ccccc1NC(=O)c1c[nH]c2ccccc2c1=O` [Compound 78, 4-oxo-N-(2-sulfamoylphenyl)-1H-quinoline-3-carboxamide], the Emax was less than 25%.

In the case of `Cc1cc(-c2ccccc2NC(=O)c2c[nH]c3ccccc3c2=O)ccc1F` [Compound 79, N-[2-(4-fluoro-3-methyl-phenyl)phenyl]-4-oxo-1H-quinoline-3-carboxamide], the EC50 was less than 10 µM and the Emax lay within 25 to 100%.

In the case of `COc1ccccc1NC(=O)c1c[nH]c2ccccc2c1=O` [Compound 80, N-(2-methoxyphenyl)-4-oxo-1H-quinoline-3-carboxamide], the Emax is 25 to 100%.

With `CCC(=O)Nc1cccc(NC(=O)c2c[nH]c3ccccc3c2=O)c1` [Compound 81, 4-oxo-N-(3-propionylaminophenyl)-1H-quinoline-3-carboxamide], the Emax is less than 25%.

For `CCN(CC)c1ccc(NC(=O)c2c[nH]c3ccccc3c2=O)c(C)c1` [Compound 82, N-(4-diethylamino-2-methyl-phenyl)-4-oxo-1H-quinoline-3-carboxamide], the Emax was 25 to 100%.

For the compound `N#Cc1cccc(-c2ccccc2NC(=O)c2c[nH]c3ccccc3c2=O)c1` [Compound 83, N-[2-(3-cyanophenyl)phenyl]-4-oxo-1H-quinoline-3-carboxamide], the Emax is 25 to 100%.

As for `Cc1ccnc(NC(=O)c2c[nH]c3ccccc3c2=O)c1` [Compound 84, N-(4-methyl-2-pyridyl)-4-oxo-1H-quinoline-3-carboxamide], the Emax was less than 25%.

For `O=C(Nc1ccccc1-c1ccc(Cl)c(Cl)c1)c1c[nH]c2ccccc2c1=O` [Compound 85, N-[2-(3,4-dichlorophenyl)phenyl]-4-oxo-1H-quinoline-3-carboxamide], the Emax fell in the range of 25 to 100%.

In the case of `NCc1ccccc1-c1ccc(NC(=O)c2c[nH]c3ccccc3c2=O)cc1` [Compound 86, N-[4-[2-(aminomethyl)phenyl]phenyl]-4-oxo-1H-quinoline-3-carboxamide], the Emax lay in the range of 25 to 100%.

Take `O=C(Nc1cccc(Oc2ccccc2)c1)c1c[nH]c2ccccc2c1=O` [Compound 87, 4-oxo-N-(3-phenoxyphenyl)-1H-quinoline-3-carboxamide]: the Emax lay in the range of 25 to 100%.

For `Cc1ccc(C#N)c(NC(=O)c2c[nH]c3ccccc3c2=O)c1` [Compound 89, N-(2-cyano-5-methyl-phenyl)-4-oxo-1H-quinoline-3-carboxamide], the Emax is less than 25%.

As for `CC(C)(C)c1ccccc1NC(=O)c1c[nH]c2ccccc2c1=O` [Compound 90, 4-oxo-N-(2-tert-butylphenyl)-1H-quinoline-3-carboxamide], the Emax lay within 25 to 100%.

Take `CCc1ccc(Cl)c(CC)c1NC(=O)c1c[nH]c2ccccc2c1=O` [Compound 91, N-(3-chloro-2,6-diethyl-phenyl)-4-oxo-1H-quinoline-3-carboxamide]: the Emax lay in the range of 25 to 100%.

On to `CC1(c2cc(F)c(NC(=O)c3c[nH]c4ccccc4c3=O)cc2O)CCCCC1` [Compound 92, N-[2-fluoro-5-hydroxy-4-(1-methylcyclohexyl)-phenyl]-4-oxo-1H-quinoline-3-carboxamide], for which the Emax is 25 to 100%.

For `N#Cc1ccc(-c2ccccc2NC(=O)c2c[nH]c3ccccc3c2=O)s1` [Compound 93, N-[2-(5-cyano-2-thienyl)phenyl]-4-oxo-1H-quinoline-3-carboxamide], the Emax was 25 to 100%.

Consider `Cc1ccc(N)cc1NC(=O)c1c[nH]c2ccccc2c1=O` [Compound 94, N-(5-Amino-2-methyl-phenyl)-4-oxo-1H-quinoline-3-carboxamide], for which the Emax was 25 to 100%.

Take `N#Cc1ccccc1NC(=O)c1c[nH]c2ccccc2c1=O` [Compound 95, N-(2-cyanophenyl)-4-oxo-1H-quinoline-3-carboxamide]: the Emax lay in the range of 25 to 100%.

For the compound `N#CCc1c[nH]c2cc(NC(=O)c3c[nH]c4ccccc4c3=O)ccc12` [Compound 96, N-[3-(cyanomethyl)-1H-indol-6-yl]-4-oxo-1H-quinoline-3-carboxamide], the Emax was 25 to 100%.

As to `COc1ncc(-c2ccccc2NC(=O)c2c[nH]c3ccccc3c2=O)c(OC)n1` [Compound 97, N-[2-(2,4-dimethoxypyrimidin-5-yl)phenyl]-4-oxo-1H-quinoline-3-carboxamide], the Emax was 25 to 100%.

Regarding `CCCc1ccc(N(C)C)cc1NC(=O)c1c[nH]c2ccccc2c1=O` [Compound 98, N-(5-dimethylamino-2-propyl-phenyl)-4-oxo-1H-quinoline-3-carboxamide], the Emax was in the range of 25 to 100%.

Turning to `CCCCCc1ccc(NC(=O)c2c[nH]c3ccccc3c2=O)cc1` [Compound 99, 4-oxo-N-(4-pentylphenyl)-1H-quinoline-3-carboxamide], the Emax was in the range of 25 to 100%.

Regarding `O=C(Nc1cccc2[nH]ccc12)c1c[nH]c2ccccc2c1=O` [Compound 100, N-(1H-indol-4-yl)-4-oxo-1H-quinoline-3-carboxamide], the Emax is less than 25%.

For the compound `CC(C)c1ccc(N)cc1NC(=O)c1c[nH]c2ccccc2c1=O` [Compound 101, N-(5-amino-2-isopropyl-phenyl)-4-oxo-1H-quinoline-3-carboxamide], the Emax lay within 25 to 100%.

For the compound `O=C(Nc1ccccc1-c1nc(-c2ccc(Cl)cc2)no1)c1c[nH]c2ccccc2c1=O` [Compound 102, N-[2-[3-(4-chlorophenyl)-1,2,4-oxadiazol-5-yl]phenyl]-4-oxo-1H-quinoline-3-carboxamide], the Emax is 25 to 100%.

On to `CC(C)(C)c1cc(C(C)(C)C)c(NC(=O)c2c[nH]c3ccc(F)cc3c2=O)cc1O` [Compound 103, 6-fluoro-N-(5-hydroxy-2,4-ditert-butyl-phenyl)-4-oxo-1H-quinoline-3-carboxamide], for which the Emax was more than 100%.

Regarding `Cc1cc2ccc(NC(=O)c3c[nH]c4ccccc4c3=O)cc2[nH]1` [Compound 104, N-(2-methyl-1H-indol-6-yl)-4-oxo-1H-quinoline-3-carboxamide], the Emax lay in the range of 25 to 100%.

For the compound `O=C(Nc1ccc2c(c1)NCCO2)c1c[nH]c2ccccc2c1=O` [Compound 105, 1,4-dihydro-N-(3,4-dihydro-2H-benzo[b][1,4]oxazin-6-yl)-4-oxoquinoline-3-carboxamide], the Emax lay within 25 to 100%.

For `COc1cc(C#N)c(NC(=O)c2c[nH]c3ccccc3c2=O)cc1OC` [Compound 106, N-(2-cyano-4,5-dimethoxy-phenyl)-4-oxo-1H-quinoline-3-carboxamide], the Emax is less than 25%.

Regarding `CC(C)(C)OC(=O)N1CCc2ccc(NC(=O)c3c[nH]c4ccccc4c3=O)cc2C1` [Compound 107, 7-[(4-oxo-1H-quinolin-3-yl)carbonylamino]-1,2,3,4-tetrahydroisoquinoline-2-carboxylic acid tert-butyl ester], the Emax was 25 to 100%.

Broadly, the EC50 is the concentration giving half of the maximal effect.
